The values that follow come from patent US5770573A, “CS-1 peptidomimetics, compositions and methods of using the same” (Cytel Corporation, priority 1995, dated 1998).

The assay concerns the target VLA-4 (Homo sapiens, UniProt P05556+P13612). The assay is described as follows: In vitro binding inhibition of 51Cr-labeled Jurkat cells to solid phase-bound CS-1 compound (SEQ ID NO:1). The class given is cell-based. The arrangement: inflammatory cells that contain the VLA-4 receptor [Jurkat cells; host or cells: Jurkat (human T lymphoblastic line). The method in brief: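 51Cr-labeled human Jurkat cells were preincubated with compound 30 min at about 22° C, then allowed to bind to wells coated with CS-1 peptide or CS-1-OVA for 30 min at 37° C. After washing, bound cells were lysed with SDS and counted. IC50 is the concentration halving binding, normalized to SEQ ID NO: 3.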

Setting [1] is: binding inhibition potency relative to standard compound of SEQ ID NO:3 = 1 (normalized IC50), about one-tenth or less assigned zero.

Where two headings read alike, the source gives them in different places. Square brackets hold non-standard residues; d marks the D form. Peptide text beside a SMILES is read from it. * marks the point of attachment. Quinoline3carbonyl = O=C(c1cnc2ccccc2c1)*; Acetyl(3-pyridyl) = O=C(Cc1cccnc1)*; hPhe = N[C@@H](CCc1ccccc1)C(=O)O; Cha = N[C@@H](CC1CCCCC1)C(=O)O; NMeD = CN[C@@H](CC(=O)O)C(=O)O; NMeL = CN[C@@H](CC(C)C)C(=O)O; Octanoyl = CCCCCCCC(=O)*; PhAc = O=C(Cc1ccccc1)*; Bz = O=C(c1ccccc1)*; X5 = CCCCCCCCCCCCO*

Chain of VLA-4 (P13612 34-1032): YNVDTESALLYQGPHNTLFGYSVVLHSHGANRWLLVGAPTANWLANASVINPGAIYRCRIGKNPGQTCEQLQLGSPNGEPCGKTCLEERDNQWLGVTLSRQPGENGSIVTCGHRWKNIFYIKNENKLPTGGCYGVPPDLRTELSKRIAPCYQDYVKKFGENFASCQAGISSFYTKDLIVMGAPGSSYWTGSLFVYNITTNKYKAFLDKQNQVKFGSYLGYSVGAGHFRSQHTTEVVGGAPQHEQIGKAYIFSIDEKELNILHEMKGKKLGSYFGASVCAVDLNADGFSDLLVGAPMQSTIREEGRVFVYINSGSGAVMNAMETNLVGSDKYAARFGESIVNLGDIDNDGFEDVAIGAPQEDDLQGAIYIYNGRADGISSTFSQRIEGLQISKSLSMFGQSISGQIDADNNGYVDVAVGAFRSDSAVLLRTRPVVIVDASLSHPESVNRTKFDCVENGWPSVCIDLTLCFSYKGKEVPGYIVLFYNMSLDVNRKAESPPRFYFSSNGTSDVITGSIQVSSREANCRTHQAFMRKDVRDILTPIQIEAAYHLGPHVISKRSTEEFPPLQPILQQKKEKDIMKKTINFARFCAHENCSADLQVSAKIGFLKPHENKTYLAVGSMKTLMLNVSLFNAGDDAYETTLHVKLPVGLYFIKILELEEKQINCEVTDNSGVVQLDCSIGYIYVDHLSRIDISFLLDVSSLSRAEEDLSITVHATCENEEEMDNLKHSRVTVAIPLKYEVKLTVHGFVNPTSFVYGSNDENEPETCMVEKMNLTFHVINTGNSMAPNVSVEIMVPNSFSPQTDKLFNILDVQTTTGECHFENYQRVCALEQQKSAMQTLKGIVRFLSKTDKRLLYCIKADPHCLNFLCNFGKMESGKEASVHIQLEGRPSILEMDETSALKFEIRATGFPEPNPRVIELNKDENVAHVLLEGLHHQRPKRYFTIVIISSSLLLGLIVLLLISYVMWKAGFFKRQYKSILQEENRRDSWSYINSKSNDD
Chain of VLA-4 (P05556 21-798): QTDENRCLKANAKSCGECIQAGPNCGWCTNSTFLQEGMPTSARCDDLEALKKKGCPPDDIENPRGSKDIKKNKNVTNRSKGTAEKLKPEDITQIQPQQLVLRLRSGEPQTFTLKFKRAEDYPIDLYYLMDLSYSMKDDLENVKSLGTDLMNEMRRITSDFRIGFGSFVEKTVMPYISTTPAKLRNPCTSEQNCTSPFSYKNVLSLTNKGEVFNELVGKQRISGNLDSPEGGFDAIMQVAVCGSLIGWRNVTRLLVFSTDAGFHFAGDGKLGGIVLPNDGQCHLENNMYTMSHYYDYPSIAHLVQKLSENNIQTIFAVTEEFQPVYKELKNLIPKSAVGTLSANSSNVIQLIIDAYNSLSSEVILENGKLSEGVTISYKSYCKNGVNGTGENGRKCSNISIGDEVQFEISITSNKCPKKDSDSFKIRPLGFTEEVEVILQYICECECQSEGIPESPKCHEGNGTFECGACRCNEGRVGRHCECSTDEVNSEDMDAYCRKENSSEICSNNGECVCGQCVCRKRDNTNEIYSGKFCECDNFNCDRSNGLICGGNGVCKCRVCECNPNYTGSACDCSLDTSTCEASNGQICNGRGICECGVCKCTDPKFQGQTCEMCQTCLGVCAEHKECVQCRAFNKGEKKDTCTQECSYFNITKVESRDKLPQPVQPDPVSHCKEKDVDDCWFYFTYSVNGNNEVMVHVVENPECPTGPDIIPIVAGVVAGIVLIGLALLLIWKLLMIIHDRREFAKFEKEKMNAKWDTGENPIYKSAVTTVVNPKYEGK

Turning to `NC(=O)[C@H]1CCCN1C(=O)[C@H](Cc1ccccc1)NC(=O)[C@H](CC(=O)O)NC(=O)[C@H](CC1CCCCC1)NC(=O)c1ccccc1` [896.31] (Bz-[Cha]DF[dP]-NH2), under setting [1], the “Relative Potency” value is on record as 11.

On to `CC(C)C[C@H](NC(=O)Cc1ccccc1)C(=O)N[C@@H](CC(=O)O)C(=O)NC1Cc2ccccc2N(CC(N)=O)C1=O` (stereo partly shown) [997.11], for which the “Relative Potency” value under setting [1] is recorded as 44.8. As to `CC(C)C[C@H](NC(=O)Cc1ccccc1)C(=O)N[C@@H](CC(=O)O)C(=O)N[C@@H]1CCCCNC1=O` [1043.01], under setting [1], the “Relative Potency” value came to 17.2.

As to `NC(=O)[C@H]1CCCN1C(=O)[C@H](Cc1ccccc1)NC(=O)[C@H](CC(=O)O)NC(=O)CC12CC3CC(CC(C3)C1)C2` [1056.13], the “Relative Potency” value is listed as 0. Consider `CC(C)C[C@H](NC(=O)[C@@H](N)Cc1ccccc1)C(=O)N[C@@H](CC(=O)O)C(=O)N[C@@H](Cc1ccccc1)C(=O)N1CCC[C@@H]1C(N)=O` [Compound ID No. 1092.01] (H-FLDF[dP]-NH2), for which the “VLA-4 binding inhibition compared in words” value (compared with standard 10-mer of SEQ ID NO:3) is reported as “binding inhibition better than that of the compound of SEQ ID NO:3”. Consider `CC(C)[C@@H]1CC[C@@H](C)C[C@H]1OCC(=O)N[C@@H](CC(=O)O)C(=O)N[C@@H](Cc1ccccc1)C(=O)N1CCC[C@@H]1C(N)=O` [1056.06], for which the “Relative Potency” value was found to be 0. Still for that read-out and setting: under `CC(C)CC(CCCc1ccccc1)C(=O)N[C@@H](CC(=O)O)C(=O)N[C@@H](Cc1ccccc1)C(=O)N1CCC[C@@H]1C(N)=O` (stereo partly shown) [1056.14] stands “.25”. In the case of `CC(C)C[C@H](NC(=O)Cc1ccccc1)C(=O)N(C)[C@@H](CC(=O)O)C(=O)N[C@@H](Cc1ccccc1)C(=O)N1CCC[C@@H]1C(N)=O` [1190.06] (PhAc-L[NMeD]F[dP]-NH2), the “Relative Potency” value under setting [1] is reported as 0. The same measure, in the same setting: under `CC(C)C[C@H](NC(=O)Cc1ccccc1)C(=O)N[C@@H](CS)C(=O)N[C@@H](Cc1ccccc1)C(=O)N1CCC[C@@H]1C(N)=O` [896.59] (PhAc-LCF[dP]-NH2) stands 0. Consider `CC[C@H](C)[C@H](N)C(=O)N[C@@H](CC(C)C)C(=O)N[C@@H](CC(=O)O)C(=O)N[C@@H](Cc1ccccc1)C(=O)N1CCC[C@@H]1C(N)=O` [896.26] (H-ILDF[dP]-NH2), for which the “Relative Potency” value is recorded as 5.63. The same measure, in the same setting: to `CC(C)C[C@H](NC(=O)Cc1cccnc1)C(=O)N[C@@H](CC(=O)O)C(=O)N[C@@H](Cc1ccccc1)C(=O)N1CCC[C@@H]1C(N)=O` [951.22] ({Acetyl(3-pyridyl)}-LDF[dP]-NH2) belongs 387. Regarding `CCCCCCCCCCCCOC(=O)C[C@H](NC(=O)[C@H](CC(C)C)NC(=O)Cc1ccccc1)C(=O)N[C@@H](Cc1ccccc1)C(=O)N1CCC[C@@H]1C(N)=O` [1068.10] (PhAc-LD(X5)F[dP]-NH2), the “Relative Potency (prodrug compound)” value (relative to SEQ ID NO:3 = 1, potency before the prodrug compound is enzymatically converted to an active form) amounted to 0. Consider `CC(C)C[C@H](NC(=O)Cc1ccccc1)C(=O)N[C@@H](CC(=O)O)C(=O)N[C@@H](CCc1ccccc1)C(=O)N1CCC[C@@H]1C(N)=O` [1062.03] (PhAc-LD[hPhe][dP]-NH2), for which, under setting [1], the “Relative Potency” value turned out to be 93.9. `CC(C)C[C@H](NC(=O)c1cccnc1)C(=O)N[C@@H](CC(=O)O)C(=O)N[C@H](C(=O)N1CCC[C@@H]1C(N)=O)C(C)C` [896.42]: the “Relative Potency” value was determined as 38.1. In the case of `CC(C)C[C@H](NC(=O)Cc1ccccc1)C(=O)N[C@@H](CS(N)(=O)=O)C(=O)N[C@@H](Cc1ccccc1)C(=O)N1CCCCC1` [1026.08], the “Relative Potency” value under setting [1] turned out to be 0. In the case of `CC(C)C[C@@H](C(=O)N[C@@H](CC(=O)O)C(=O)N[C@@H](Cc1ccccc1)C(=O)N1CCCCC1)N1C(=O)N[C@@H](Cc2ccccc2)C1=O` [1047.06], the “Relative Potency” value is 6.26.

Turning to `Cc1ccc(S(=O)(=O)N2CCN(C(=O)[C@H](Cc3ccccc3)NC(=O)[C@H](CC(=O)O)NC(=O)[C@H](CC(C)C)NC(=O)Cc3ccccc3)CC2)cc1` [1111.01], under setting [1], the “Relative Potency” value is recorded as 363. The same measure, in the same setting: to `CC(C)C[C@H](NC(=O)c1ccccc1)C(=O)N[C@@H](CC(=O)O)C(=O)N[C@@H](Cc1ccccc1)C(=O)N1CCC[C@@H]1C(N)=O` [896.28] (Bz-LDF[dP]-NH2) belongs 44.6. Turning to `Cc1cccc(C)c1C(=O)N[C@@H](CC(C)C)C(=O)N[C@@H](CC(=O)O)C(=O)N[C@H](C(=O)N1CCC[C@@H]1C(N)=O)C(C)C` [896.36], the “Relative Potency” value came to 3.13. The same measure, in the same setting: under `CC(C)C[C@H](NC(=O)CCc1ccccc1)C(=O)N[C@@H](CC(=O)O)C(=O)N[C@H](C(=O)N1CCC[C@@H]1C(N)=O)C(C)C` [896.40] stands 5.32. Take `CC(C)C[C@H](NC(=O)Cc1ccccc1)C(=O)N[C@@H](CP(=O)(O)O)C(=O)N[C@@H](Cc1ccccc1)C(=O)N1CCCCC1` [1026.07]: under setting [1], the “Relative Potency” value is listed as 0. Same read-out and setting: to `CC(C)C[C@H](NC(=O)Cc1ccccc1)C(=O)N[C@@H](CC(=O)O)C(=O)N[C@H]1Cc2ccccc2[C@H]2CCCCN2C1=O` [1026.05] belongs 50.1. As to `CC[C@H](C)[C@H](N)C(=O)N(C)[C@@H](CC(C)C)C(=O)N[C@@H](CC(=O)O)C(=O)N[C@H](C(=O)N1CCC[C@H]1C(N)=O)C(C)C` [926.11] (H-I[NMeL]DVP-NH2), the “Relative Potency” value is reported as “.06”. Consider `CC(C)C[C@H](NC(=O)c1ccccc1)C(=O)N[C@@H](CC(=O)O)C(=O)N[C@H](C(=O)N1CCC[C@@H]1C(N)=O)C(C)C` [926.02], for which the “Relative Potency” value under setting [1] is 9.6. In the case of `CC(C)C[C@H](NC(=O)Cc1ccccc1)C(=O)N[C@@H](CC(=O)O)C(=O)N1C(=O)N(Cc2ccccc2)C(=O)[C@@H]1Cc1ccccc1` [1047.08], the “Relative Potency” value under setting [1] is given as “.38”. Still for that read-out and setting: under `CC(C)C[C@H](NC(=O)Cc1ccccc1)C(=O)N[C@@H](CC(=O)O)C(=O)N[C@@H]1CCN(C2CCCCC2)C1=O` [1057.03] stands 3.44; under `CC(C)C[C@H](NC(=O)Cc1ccccc1)C(=O)N[C@@H](CC(=O)O)C(=O)N1CCc2ccccc2C1` [997.09], 3.13. On to `CC[C@H](C)[C@H](N)C(=O)N[C@@H](CC(C)C)C(=O)N[C@@H](CC(=O)O)C(=O)N[C@H](C(=O)N1CCC[C@H]1C(=O)O)C(C)C` [886.05] (H-ILDVP-OH), for which the “Relative Potency” value is listed as 2. On the same count and under the same terms, to `CC(C)C[C@H](NC(=O)c1cnc2ccccc2c1)C(=O)N[C@@H](CC(=O)O)C(=O)N[C@@H](Cc1ccccc1)C(=O)N1CCC[C@@H]1C(N)=O` [951.05] (Quinoline3carbonyl-LDF[dP]-NH2) belongs 56.3. As for `CC(C)CN(CC(=O)Nc1ccccc1)C(=O)CN(CC(=O)O)C(=O)CN(Cc1ccccc1)C(=O)C1CCCC1` [1032.02], the “Relative Potency” value under setting [1] was “.63”. As to `CC[C@H](C)[C@H](N)C(=O)N[C@@H](Cc1ccccc1)C(=O)N[C@@H](CC(=O)O)C(=O)N[C@H](C(=O)N1CCC[C@H]1C(N)=O)C(C)C` [926.07] (H-IFDVP-NH2), the “Relative Potency” value is on record as “.08”. As for `CC(C)C[C@H](NC(=O)Cc1ccccc1)C(=O)N[C@@H](CC(=O)O)C(=O)N[C@@H](Cc1ccccc1)C(=O)NCCCO` [1051.05], the “Relative Potency” value under setting [1] is 25.

Regarding `CC(C)C[C@H](NC(=O)Cc1ccccc1)C(=O)NC(C(=O)O)C(=O)N[C@@H](Cc1ccccc1)C(=O)N1CCCCC1` (stereo partly shown) [1026.02], the “Relative Potency” value under setting [1] was determined as 0. For `CCCCCCCC(=O)N[C@@H](CC(=O)O)C(=O)N[C@@H](Cc1ccccc1)C(=O)N1CCC[C@@H]1C(N)=O` [1056.12] (Octanoyl-Asp-Phe-[dP]-NH2), the “Relative Potency” value was found to be 0.
